Patent US7829298B2, “Human G protein-coupled receptors for metabolic-related disorders” (Arena Pharmaceuticals, Inc., priority 2001, dated 2010)
Entries after “also recorded” stand apart in the source; their conditions may differ. Like-named read-outs stand apart in the source and are kept apart here. Blank lines part the entries; values can stand above or below the molecule they belong to.

Legend:
hRUP25 = hRUP25 (Homo sapiens, UniProt Q8TDS4); assay: Inhibition of forskolin stimulated cAMP accumulation in stable CHO cells (adenylyl cyclase assay); assay type: cell-based; conditions: for inhibition of forskolin stimulated cAMP / agonist or not (in words): CHO cells expressing hRUP25
Sequence of hRUP25 (Q8TDS4 whole entry): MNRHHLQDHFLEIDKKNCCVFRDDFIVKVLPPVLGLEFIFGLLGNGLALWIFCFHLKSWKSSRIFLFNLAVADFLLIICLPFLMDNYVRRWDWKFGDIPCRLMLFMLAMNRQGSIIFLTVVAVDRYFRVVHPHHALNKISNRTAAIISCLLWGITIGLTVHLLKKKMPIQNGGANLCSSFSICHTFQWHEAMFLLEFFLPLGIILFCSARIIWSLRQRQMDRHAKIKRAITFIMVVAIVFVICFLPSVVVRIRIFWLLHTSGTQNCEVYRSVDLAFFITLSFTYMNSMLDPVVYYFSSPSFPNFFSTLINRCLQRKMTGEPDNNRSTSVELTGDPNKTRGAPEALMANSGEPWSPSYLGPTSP

[1] = system: adipocyte primary cultures derived from human subcutaneous fat; assay: Isoproterenol induced lipolysis in human primary adipocytes; assay type: cell-based; conditions: for EC50: read-out: EC50, inhibition of isoproterenol induced lipolysis
Text: Lipolysis assays were done following the isolation of adipocytes from rat or human. The source of fat from rats was the epididymal fat and from humans was either subcutaneous or omental. Cells were isolated following collagenase digestion and floatation. An elevation of intracellular cAMP levels and concomitant activation of lipolysis via hormone sensitive lipase was accomplished using isoproterenol, forskolin, 3-isobutyl-1-methyl-xanthine (IBMX) or a combination thereof at concentrations and times determined empirically and depending on the source of tissue. […] Data was analyzed using Excel and PrismGraph.

hRUP19 [2] = target: T1, hRUP19 (Homo sapiens, UniProt Q9BXC0); assay: Inhibition of forskolin stimulated cAMP in stable CHO cells (adenylyl cyclase assay); assay type: cell-based; set-up: The full length hRUP19 was cloned by PCR using primers; expressed in transfected cells; conditions: CHO cells expressing hRUP19
T1 sequence (Q9BXC0 whole entry): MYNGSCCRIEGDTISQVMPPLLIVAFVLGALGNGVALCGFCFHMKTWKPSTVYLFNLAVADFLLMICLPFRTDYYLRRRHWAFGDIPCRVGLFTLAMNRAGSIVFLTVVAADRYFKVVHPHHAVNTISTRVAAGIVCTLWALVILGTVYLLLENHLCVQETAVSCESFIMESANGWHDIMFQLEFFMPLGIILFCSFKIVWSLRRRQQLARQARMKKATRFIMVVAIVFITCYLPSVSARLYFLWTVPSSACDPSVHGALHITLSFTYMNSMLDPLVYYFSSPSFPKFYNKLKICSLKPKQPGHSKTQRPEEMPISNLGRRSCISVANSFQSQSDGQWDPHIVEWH
Text: (§1) A Flash Plate™ Adenylyl Cyclase kit (New England Nuclear; Cat. No. SMP004A) designed for cell-based assays can be modified for use with crude plasma membranes. The Flash Plate wells can contain a scintillant coating which also contains a specific antibody recognizing cAMP. The cAMP generated in the wells can be quantitated by a direct competition for binding of radioactive cAMP tracer to the cAMP antibody. The following serves as a brief protocol for the measurement of changes in cAMP levels in whole cells that express the receptors.
Media is carefully aspirated off and discarded. 10 ml of PBS is gently added to each dish of cells followed by careful aspiration. 1 ml of Sigma cell dissociation buffer and 3 ml of PBS are added to each plate. Cells were pipetted off the plate and the cell suspension was collected into a 50 ml conical centrifuge tube. Cells were then centrifuged at room temperature at 1,100 rpm for 5 min. The cell pellet was carefully re-suspended into an appropriate volume of PBS (about 3 ml/plate). The cells were then counted using a hemocytometer and additional PBS was added to give the appropriate number of cells (with a final volume of about 50 μl/well). […]

hRUP38 = target: T2, hRUP38 (Homo sapiens, UniProt P49019); assay: as above; assay type: cell-based
T2 construct: The full length hRUP38 was cloned by PCR using hRUP38 specific primers; expressed in transfected cells
T2 sequence (P49019 whole entry K94N/T173P/F198L/H253R/I317M/I346M): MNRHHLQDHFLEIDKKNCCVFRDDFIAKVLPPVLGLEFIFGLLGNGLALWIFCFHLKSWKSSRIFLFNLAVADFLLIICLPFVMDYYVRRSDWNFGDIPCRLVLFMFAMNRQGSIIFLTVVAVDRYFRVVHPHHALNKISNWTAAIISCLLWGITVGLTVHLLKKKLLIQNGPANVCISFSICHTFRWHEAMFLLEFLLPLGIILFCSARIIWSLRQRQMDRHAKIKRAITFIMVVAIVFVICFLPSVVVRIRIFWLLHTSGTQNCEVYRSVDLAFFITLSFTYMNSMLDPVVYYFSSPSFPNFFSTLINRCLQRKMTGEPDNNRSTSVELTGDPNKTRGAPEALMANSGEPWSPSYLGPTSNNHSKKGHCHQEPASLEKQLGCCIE
Text: as §1
Media is carefully aspirated off and discarded. 10 ml of PBS is gently added to each dish of cells followed by careful aspiration. 1 ml of Sigma cell dissociation buffer and 3 ml of PBS are added to each plate. Cells were pipetted off the plate and the cell suspension was collected into a 50 ml conical centrifuge tube. Cells were then centrifuged at room temperature at 1,100 rpm for 5 min. The cell pellet was carefully re-suspended into an appropriate volume of PBS (about 3 ml/plate). The cells were then counted using a hemocytometer and additional PBS was added to give the appropriate number of cells (with a final volume of about 50 μl/well).
The cells were then added to the wells and incubated for 60 min at room temperature. 100 μl of Detection Mix containing tracer cAMP was then added to the wells. Plates were then incubated additional 2 hours followed by counting in a Wallac MicroBeta scintillation counter. Values of cAMP/well were then extrapolated from a standard cAMP curve which was contained within each assay plate.

[3] = system: rat epididymal fat derived adipocytes; conditions: concentration of 10 μM
male Sprague Dawley rats = conditions: for plasma free fatty acids (FFA) level (in words): fasted rats, IP injection, 15 mg/kg, 30 mg/kg or 45 mg/kg, time course
hRUP19 [4] = target: T1, hRUP19; conditions: HEK293 cells transfected with GqΔGi plus hRUP19

inhibition of forskolin stimulated cAMP / agonist or not (in words) (hRUP25): no effect
inhibition of forskolin stimulated cAMP / agonist or not (in words) (hRUP19 [2]): no effect
inhibition of forskolin stimulated cAMP / agonist or not (in words) (hRUP38; hRUP38-expressing CHO cells): does and agonist for hRUP38
Compound: CC(C)n1nnc2cc(C(=O)O)ccc21 [1-Isopropyl-1H-benzotriazole-5-carboxylic acid]
inhibition of isoproterenol stimulated lipolysis (in words) ([1]; isoproterenol 100 nM, primary human adipocytes): dose-dependant manner comparable to that of nicotinic acid; also recorded: dose-dependent manner comparable to that of nicotinic acid; also recorded: inhibit lipolysis

inhibition of forskolin stimulated cAMP / agonist or not (in words) (hRUP25): no effect
inhibition of forskolin stimulated cAMP / agonist or not (in words) (hRUP19 [2]): no effect
EC50 (hRUP38; hRUP38-expressing CHO cells): 1.17 µM
Compound: CCOc1ccc(Br)cc1C=CC(=O)O [3-(5-Bromo-2-ethoxy-phenyl)-acrylic acid]
inhibition of forskolin stimulated cAMP / agonist or not (in words) (hRUP38; hRUP38-expressing CHO cells): activates inhibition of forskolin stimulated cAMP; also recorded: agonist for RUP38

inhibition of forskolin stimulated cAMP / agonist or not (in words) (hRUP25; listed as (5-Hydroxy-1-methyl-3-propyl-1H-pyrazol-4-yl)-pyridin-3-yl-methanone): agonist for RUP25
EC50 (hRUP25; hRUP25-expressing CHO cells (stable line #46 in FIG. 18B), read-out: EC50, inhibition of forskolin stimulated cAMP accumulation): 0.352 µM
inhibition of forskolin stimulated cAMP / agonist or not (in words) (hRUP38; hRUP38-expressing CHO cells): not for RUP38
activity on hRUP38-expressing CHO cells (in words) (hRUP38; up to a concentration of at least 100 μM (not shown)): no activity
Compound: CCCc1nn(C)c(O)c1C(=O)c1cccnc1 [(5-Hydroxy-1-methyl-3-propyl-1H-pyrazol-4-yl)-pyridin-3-yl-methanone]
inhibition of forskolin stimulated cAMP / agonist or not (in words) (hRUP25): activates inhibition of forskolin stimulated cAMP

Compound: CN1CCC[C@H]1c1cccnc1 [(−)-nicotine, (−)-NICOTINE, reference compound]
EC50 (hRUP25): 9.8 µM
inhibition of forskolin stimulated cAMP / agonist or not (in words) (hRUP25): agonist for RUP25

Compound: c1cncc(-c2nn[nH]n2)c1 [P-3-T, 3-tetrazole-5-pyridine, reference compound]
EC50 ([1]; adipocyte primary cultures derived from human subcutaneous fat): 0.218 µM

Compound: O=C(O)c1cccnc1 [nicotinic acid, Nicotinic acid]
inhibition of isoproterenol stimulated lipolysis (in words) [1]: inhibit lipolysis
EC50 ([1]; Homo sapiens, Adipocyte): 0.716 µM
inhibition of isoproterenol induced lipolysis (in words) [3]: inhibiting isoproterenol induced lipolysis
plasma FFA versus vehicle control after inhibition, rebound (in words) (male Sprague Dawley rats; 45 mg/kg IP, at 3 hr): rebound effect
plasma free fatty acids (FFA) level (in words) (male Sprague Dawley rats): lower plasma free fatty acids
plasma free fatty acids (FFA) level (in words) (male Sprague Dawley rats; listed as niacin): significantly decrease
inositol phosphates (IPs) accumulation / agonist or not (in words) (hRUP19 [4]): unresponsive
inositol phosphates (IPs) accumulation / agonist or not (in words) (hRUP19 [4]; listed as Nicotinic acid): not for RUP38 or RUP19
